Measured values from the kinase profiling compilation of Christmann-Franck et al. (2016).

What was measured:
Assay in all cases: radiometric filter-binding kinase assay, Kinase HotSpot
MAP3K10 (human) = MAP3K10 (human) (UniProt Q02779); details: compound 0.5 µM; ATP 10 µM
ROCK2 (human) = ROCK2 (human) (UniProt O75116); details: compound 0.5 µM; ATP 10 µM
CAMK1D (human) = CAMK1D (human) (UniProt Q8IU85); details: compound 0.5 µM; ATP 10 µM
SRPK2 (human) = SRPK2 (human) (UniProt P78362); details: compound 0.5 µM; ATP 10 µM
HIPK4 (human) = HIPK4 (human) (UniProt Q8NE63); details: compound 0.5 µM; ATP 10 µM
PHKG1 (human) = PHKG1 (human) (UniProt Q16816); details: compound 0.5 µM; ATP 10 µM
PKN1 (human) = PKN1 (human) (UniProt Q16512); details: compound 0.5 µM; ATP 10 µM
YES1 (human) = YES1 (human) (UniProt P07947); details: compound 0.5 µM; ATP 10 µM
CDK5 CDK5R1 p35 (human) = CDK5 CDK5R1 p35 (human) (UniProt Q00535+Q15078); details: compound 0.5 µM
CAMK4 (human) = CAMK4 (human) (UniProt Q16566); details: compound 0.5 µM; ATP 10 µM
PRKD1 (human) = PRKD1 (human) (UniProt Q15139); details: compound 0.5 µM; ATP 10 µM
PTK2 (human) = PTK2 (human) (UniProt Q05397); details: compound 0.5 µM; ATP 10 µM
ULK2 (human) = ULK2 (human) (UniProt Q8IYT8); details: compound 0.5 µM; ATP 10 µM
GSK3A (human) = GSK3A (human) (UniProt P49840); details: compound 0.5 µM; ATP 10 µM
TXK (human) = TXK (human) (UniProt P42681); details: compound 0.5 µM; ATP 10 µM
EPHA2 (human) = EPHA2 (human) (UniProt P29317); details: compound 0.5 µM; ATP 10 µM
NEK11 (human) = NEK11 (human) (UniProt Q8NG66); details: compound 0.5 µM; ATP 10 µM
DYRK3 (human) = DYRK3 (human) (UniProt O43781); details: compound 0.5 µM; ATP 10 µM
CDK4 CCND1 (human) = CDK4 CCND1 (human) (UniProt P24385+P11802); details: compound 0.5 µM
CAMKK1 (human) = CAMKK1 (human) (UniProt Q8N5S9); details: compound 0.5 µM; ATP 10 µM
STK17A (human) = STK17A (human) (UniProt Q9UEE5); details: compound 0.5 µM; ATP 10 µM
PDGFRB (human) = PDGFRB (human) (UniProt P09619); details: compound 0.5 µM; ATP 10 µM
MAP2K2 (human) = MAP2K2 (human) (UniProt P36507); details: compound 0.5 µM; ATP 10 µM
FGFR4 (human) = FGFR4 (human) (UniProt P22455); details: compound 0.5 µM; ATP 10 µM
NEK9 (human) = NEK9 (human) (UniProt Q8TD19); details: compound 0.5 µM; ATP 10 µM
MAPK1 (human) = MAPK1 (human) (UniProt P28482); details: compound 0.5 µM; ATP 10 µM
MAPK3 (human) = MAPK3 (human) (UniProt P27361); details: compound 0.5 µM; ATP 10 µM
OXSR1 (human) = OXSR1 (human) (UniProt O95747); details: compound 0.5 µM; ATP 10 µM
PRKCD (human) = PRKCD (human) (UniProt Q05655); details: compound 0.5 µM; ATP 10 µM
[1] = target: TYK2 JH1 catalytic (human) (UniProt P29597); details: compound 0.5 µM; ATP 10 µM
TSSK1B (human) = TSSK1B (human) (UniProt Q9BXA7); details: compound 0.5 µM; ATP 10 µM
NLK (human) = NLK (human) (UniProt Q9UBE8); details: compound 0.5 µM; ATP 10 µM
MAPKAPK3 (human) = MAPKAPK3 (human) (UniProt Q16644); details: compound 0.5 µM; ATP 10 µM
CSNK1G3 (human) = CSNK1G3 (human) (UniProt Q9Y6M4); details: compound 0.5 µM; ATP 10 µM
MST1R (human) = MST1R (human) (UniProt Q04912); details: compound 0.5 µM; ATP 10 µM
STK25 (human) = STK25 (human) (UniProt O00506); details: compound 0.5 µM; ATP 10 µM
STK10 (human) = STK10 (human) (UniProt O94804); details: compound 0.5 µM; ATP 10 µM
CSNK1D (human) = CSNK1D (human) (UniProt P48730); details: compound 0.5 µM
RPS6KB2 (human) = RPS6KB2 (human) (UniProt Q9UBS0); details: compound 0.5 µM; ATP 10 µM
PRKCA (human) = PRKCA (human) (UniProt P17252); details: compound 0.5 µM; ATP 10 µM
SRMS (human) = SRMS (human) (UniProt Q9H3Y6); details: compound 0.5 µM; ATP 10 µM
CSNK2A2 (human) = CSNK2A2 (human) (UniProt P19784); details: compound 0.5 µM; ATP 10 µM

CAMK1D (human), sequence (Q8IU85 whole entry, looked up): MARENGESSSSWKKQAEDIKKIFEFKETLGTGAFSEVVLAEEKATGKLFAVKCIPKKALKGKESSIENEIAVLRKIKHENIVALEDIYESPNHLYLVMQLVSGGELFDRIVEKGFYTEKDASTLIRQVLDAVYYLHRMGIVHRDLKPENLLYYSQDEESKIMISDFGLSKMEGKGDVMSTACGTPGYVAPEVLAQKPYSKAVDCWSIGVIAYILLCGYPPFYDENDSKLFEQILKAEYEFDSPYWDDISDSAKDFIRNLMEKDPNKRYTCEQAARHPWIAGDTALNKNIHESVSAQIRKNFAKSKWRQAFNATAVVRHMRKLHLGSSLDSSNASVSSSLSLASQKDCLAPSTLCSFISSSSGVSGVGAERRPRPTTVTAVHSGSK
TYK2 JH1 catalytic (human), sequence (P29597 whole entry, looked up): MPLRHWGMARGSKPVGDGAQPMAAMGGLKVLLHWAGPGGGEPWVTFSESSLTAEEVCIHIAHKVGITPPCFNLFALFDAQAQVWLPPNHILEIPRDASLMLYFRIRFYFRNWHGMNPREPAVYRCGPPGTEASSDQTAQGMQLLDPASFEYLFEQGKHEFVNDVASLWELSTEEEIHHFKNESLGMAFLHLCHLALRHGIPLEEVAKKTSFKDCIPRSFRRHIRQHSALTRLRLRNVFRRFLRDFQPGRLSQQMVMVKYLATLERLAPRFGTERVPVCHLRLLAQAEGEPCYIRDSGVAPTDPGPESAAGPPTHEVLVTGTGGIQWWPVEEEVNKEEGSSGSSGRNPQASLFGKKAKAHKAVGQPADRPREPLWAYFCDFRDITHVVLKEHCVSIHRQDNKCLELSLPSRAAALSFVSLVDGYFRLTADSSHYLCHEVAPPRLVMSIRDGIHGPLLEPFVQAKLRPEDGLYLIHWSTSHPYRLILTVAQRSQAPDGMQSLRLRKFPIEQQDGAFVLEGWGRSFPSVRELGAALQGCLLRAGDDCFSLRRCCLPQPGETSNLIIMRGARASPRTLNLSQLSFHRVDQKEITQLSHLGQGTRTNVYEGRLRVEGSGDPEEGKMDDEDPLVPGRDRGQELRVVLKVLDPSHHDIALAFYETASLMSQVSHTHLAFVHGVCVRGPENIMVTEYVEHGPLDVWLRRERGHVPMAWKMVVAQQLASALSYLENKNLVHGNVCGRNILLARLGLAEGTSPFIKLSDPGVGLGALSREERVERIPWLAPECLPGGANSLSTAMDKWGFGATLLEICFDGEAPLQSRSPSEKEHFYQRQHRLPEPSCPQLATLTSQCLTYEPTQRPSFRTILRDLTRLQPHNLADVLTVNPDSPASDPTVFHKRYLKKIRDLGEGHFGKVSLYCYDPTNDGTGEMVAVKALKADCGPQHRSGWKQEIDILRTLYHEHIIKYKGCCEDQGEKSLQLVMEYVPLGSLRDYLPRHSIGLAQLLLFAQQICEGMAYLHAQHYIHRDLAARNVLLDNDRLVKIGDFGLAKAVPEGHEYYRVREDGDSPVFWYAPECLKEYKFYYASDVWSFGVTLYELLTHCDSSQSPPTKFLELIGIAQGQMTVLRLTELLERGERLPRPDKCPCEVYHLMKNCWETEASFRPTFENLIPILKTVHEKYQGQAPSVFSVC
PDGFRB (human), sequence (P09619 whole entry, looked up): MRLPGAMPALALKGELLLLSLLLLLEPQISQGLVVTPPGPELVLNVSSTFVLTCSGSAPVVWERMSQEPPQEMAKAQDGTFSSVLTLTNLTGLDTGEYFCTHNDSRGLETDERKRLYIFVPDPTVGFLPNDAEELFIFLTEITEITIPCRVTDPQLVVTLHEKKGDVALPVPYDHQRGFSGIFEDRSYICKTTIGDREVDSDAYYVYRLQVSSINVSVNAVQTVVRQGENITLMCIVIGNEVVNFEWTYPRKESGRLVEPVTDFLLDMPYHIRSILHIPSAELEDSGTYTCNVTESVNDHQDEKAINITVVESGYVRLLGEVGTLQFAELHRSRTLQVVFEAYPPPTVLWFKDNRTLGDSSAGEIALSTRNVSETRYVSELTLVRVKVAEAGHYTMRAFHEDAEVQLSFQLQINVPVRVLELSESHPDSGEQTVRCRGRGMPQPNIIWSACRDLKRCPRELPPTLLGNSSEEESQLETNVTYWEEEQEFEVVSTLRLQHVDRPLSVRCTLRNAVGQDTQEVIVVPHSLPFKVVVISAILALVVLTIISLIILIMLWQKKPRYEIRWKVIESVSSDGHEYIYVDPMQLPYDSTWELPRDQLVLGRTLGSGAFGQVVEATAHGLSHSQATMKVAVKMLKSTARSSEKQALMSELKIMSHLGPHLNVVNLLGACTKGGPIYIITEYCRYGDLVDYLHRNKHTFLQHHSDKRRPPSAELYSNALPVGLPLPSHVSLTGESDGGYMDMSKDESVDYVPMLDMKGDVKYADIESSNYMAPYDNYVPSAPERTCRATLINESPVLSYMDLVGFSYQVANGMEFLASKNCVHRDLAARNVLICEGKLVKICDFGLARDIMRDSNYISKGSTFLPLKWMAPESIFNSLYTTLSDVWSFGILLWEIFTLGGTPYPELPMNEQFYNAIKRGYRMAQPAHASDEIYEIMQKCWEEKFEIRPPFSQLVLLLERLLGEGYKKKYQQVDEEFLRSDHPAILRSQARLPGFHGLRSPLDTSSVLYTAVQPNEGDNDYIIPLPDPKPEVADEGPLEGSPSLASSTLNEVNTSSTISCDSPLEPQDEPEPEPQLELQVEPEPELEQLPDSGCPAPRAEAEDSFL
PTK2 (human), sequence (Q05397 whole entry, looked up): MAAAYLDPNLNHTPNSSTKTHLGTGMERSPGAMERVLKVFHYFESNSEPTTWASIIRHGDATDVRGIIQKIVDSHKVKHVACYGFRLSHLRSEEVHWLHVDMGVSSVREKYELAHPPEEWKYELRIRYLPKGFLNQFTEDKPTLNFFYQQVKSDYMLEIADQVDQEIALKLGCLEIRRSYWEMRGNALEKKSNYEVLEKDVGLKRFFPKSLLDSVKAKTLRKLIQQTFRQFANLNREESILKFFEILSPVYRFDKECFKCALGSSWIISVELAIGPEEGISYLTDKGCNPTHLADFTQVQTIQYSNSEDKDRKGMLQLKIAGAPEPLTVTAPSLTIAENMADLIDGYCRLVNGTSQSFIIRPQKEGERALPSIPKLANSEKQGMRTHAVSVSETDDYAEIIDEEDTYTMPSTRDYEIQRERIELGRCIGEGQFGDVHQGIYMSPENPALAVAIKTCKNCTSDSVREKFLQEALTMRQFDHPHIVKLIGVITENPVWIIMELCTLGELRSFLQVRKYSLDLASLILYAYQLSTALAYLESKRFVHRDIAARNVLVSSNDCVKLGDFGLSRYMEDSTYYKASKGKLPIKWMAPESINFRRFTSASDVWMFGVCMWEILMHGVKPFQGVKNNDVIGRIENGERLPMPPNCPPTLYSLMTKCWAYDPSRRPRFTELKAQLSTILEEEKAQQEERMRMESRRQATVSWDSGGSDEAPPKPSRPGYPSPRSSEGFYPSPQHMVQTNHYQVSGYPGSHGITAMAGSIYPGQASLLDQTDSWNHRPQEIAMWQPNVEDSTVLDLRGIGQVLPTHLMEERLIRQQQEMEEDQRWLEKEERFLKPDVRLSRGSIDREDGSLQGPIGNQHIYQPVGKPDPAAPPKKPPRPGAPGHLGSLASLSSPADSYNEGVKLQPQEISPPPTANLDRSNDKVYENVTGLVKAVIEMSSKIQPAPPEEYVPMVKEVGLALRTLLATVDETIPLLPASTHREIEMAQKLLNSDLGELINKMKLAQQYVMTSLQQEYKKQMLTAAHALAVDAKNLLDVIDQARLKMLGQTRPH
ROCK2 (human), sequence (O75116 whole entry, looked up): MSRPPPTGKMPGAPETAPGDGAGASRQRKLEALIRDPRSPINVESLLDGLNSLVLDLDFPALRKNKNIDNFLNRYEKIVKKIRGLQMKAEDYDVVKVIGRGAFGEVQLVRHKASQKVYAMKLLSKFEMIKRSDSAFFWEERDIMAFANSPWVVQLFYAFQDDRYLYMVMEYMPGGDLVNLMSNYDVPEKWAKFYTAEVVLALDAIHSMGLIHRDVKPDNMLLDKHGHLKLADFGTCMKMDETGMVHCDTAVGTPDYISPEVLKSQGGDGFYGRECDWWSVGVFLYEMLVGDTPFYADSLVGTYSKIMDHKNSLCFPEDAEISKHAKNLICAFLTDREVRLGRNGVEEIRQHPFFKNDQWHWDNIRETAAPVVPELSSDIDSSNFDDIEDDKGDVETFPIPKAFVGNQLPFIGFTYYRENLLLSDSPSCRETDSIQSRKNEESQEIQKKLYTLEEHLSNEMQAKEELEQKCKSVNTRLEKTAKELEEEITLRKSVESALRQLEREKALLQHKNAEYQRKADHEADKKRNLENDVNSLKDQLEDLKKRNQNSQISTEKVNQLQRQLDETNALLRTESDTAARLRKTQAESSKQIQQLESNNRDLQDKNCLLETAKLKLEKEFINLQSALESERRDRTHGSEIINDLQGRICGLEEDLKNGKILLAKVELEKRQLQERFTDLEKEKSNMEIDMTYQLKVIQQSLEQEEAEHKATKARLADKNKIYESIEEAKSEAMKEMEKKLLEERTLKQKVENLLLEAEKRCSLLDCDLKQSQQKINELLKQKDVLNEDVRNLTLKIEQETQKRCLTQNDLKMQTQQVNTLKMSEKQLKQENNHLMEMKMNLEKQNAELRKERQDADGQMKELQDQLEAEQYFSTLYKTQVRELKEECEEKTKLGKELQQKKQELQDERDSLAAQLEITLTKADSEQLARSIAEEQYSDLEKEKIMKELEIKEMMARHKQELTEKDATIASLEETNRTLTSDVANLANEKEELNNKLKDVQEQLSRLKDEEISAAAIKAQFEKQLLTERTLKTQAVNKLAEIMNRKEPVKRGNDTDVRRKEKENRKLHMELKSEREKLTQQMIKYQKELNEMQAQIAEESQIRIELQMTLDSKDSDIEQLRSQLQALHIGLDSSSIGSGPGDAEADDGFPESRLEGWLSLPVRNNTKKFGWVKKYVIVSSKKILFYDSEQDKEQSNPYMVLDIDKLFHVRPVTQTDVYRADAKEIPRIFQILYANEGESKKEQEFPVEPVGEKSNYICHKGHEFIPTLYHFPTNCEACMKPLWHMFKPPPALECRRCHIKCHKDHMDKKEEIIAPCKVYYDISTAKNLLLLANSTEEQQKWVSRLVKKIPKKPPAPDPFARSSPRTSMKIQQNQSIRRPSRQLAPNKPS

Compound: Nc1ncnc2c1cnn2-c1ccccc1
- residual activity (MAP3K10 (human)): 88.6%
- residual activity (ROCK2 (human)): 83.2%
- residual activity (CAMK1D (human)): 95.6%
- residual activity (SRPK2 (human)): 104%
- residual activity (HIPK4 (human)): 86.3%
- residual activity (PHKG1 (human)): 94.2%
- residual activity (PKN1 (human)): 98.6%
- residual activity (YES1 (human)): 93.7%
- residual activity (CDK5 CDK5R1 p35 (human); ATP 10 µM): 99.2%
- residual activity (CAMK4 (human)): 104%
- residual activity (PRKD1 (human)): 98.1%
- residual activity (PTK2 (human)): 94.9%
- residual activity (ULK2 (human)): 95.1%
- residual activity (GSK3A (human)): 90.3%
- residual activity (TXK (human)): 94.8%
- residual activity (EPHA2 (human)): 96%
- residual activity (NEK11 (human)): 107%
- residual activity (DYRK3 (human)): 96.8%
- residual activity (CDK4 CCND1 (human); ATP 10 µM): 103%
- residual activity (CAMKK1 (human)): 84.8%
- residual activity (STK17A (human)): 102%
- residual activity (PDGFRB (human)): 94.7%
- residual activity (MAP2K2 (human)): 96.9%
- residual activity (FGFR4 (human)): 94.8%
- residual activity (NEK9 (human)): 110%
- residual activity (MAPK1 (human)): 85.4%
- residual activity (MAPK3 (human)): 90.1%
- residual activity (OXSR1 (human)): 92.6%
- residual activity (PRKCD (human)): 93%
- residual activity [1]: 86.7%
- residual activity (TSSK1B (human)): 84.1%
- residual activity (NLK (human)): 92.5%
- residual activity (MAPKAPK3 (human)): 96.6%
- residual activity (CSNK1G3 (human)): 93.4%
- residual activity (MST1R (human)): 100%
- residual activity (STK25 (human)): 93.2%
- residual activity (STK10 (human)): 95.4%
- residual activity (CSNK1D (human); ATP 10 µM): 79.5%
- residual activity (RPS6KB2 (human)): 87.5%
- residual activity (PRKCA (human)): 103%
- residual activity (SRMS (human)): 104%

Compound: O=c1[nH]c2ccccc2n1C1CCN(Cc2ccc(-c3nc4cc5[nH]cnc5cc4nc3-c3ccccc3)cc2)CC1
- residual activity (MAP3K10 (human)): 102%
- residual activity (ROCK2 (human)): 109%
- residual activity (CAMK1D (human)): 107%
- residual activity (SRPK2 (human)): 116%
- residual activity (HIPK4 (human)): 99.3%
- residual activity (PHKG1 (human)): 106%
- residual activity (PKN1 (human)): 90.3%
- residual activity (YES1 (human)): 90.8%
- residual activity (CDK5 CDK5R1 p35 (human)): 91.9%
- residual activity (CAMK4 (human)): 101%
- residual activity (PRKD1 (human)): 94.7%
- residual activity (PTK2 (human)): 108%
- residual activity (GSK3A (human)): 100%
- residual activity (TXK (human)): 104%
- residual activity (EPHA2 (human)): 103%
- residual activity (NEK11 (human)): 86.4%
- residual activity (DYRK3 (human)): 101%
- residual activity (CDK4 CCND1 (human)): 108%
- residual activity (CAMKK1 (human)): 117%
- residual activity (STK17A (human)): 98.2%
- residual activity (PDGFRB (human)): 102%
- residual activity (MAP2K2 (human)): 86.6%
- residual activity (FGFR4 (human)): 97.2%
- residual activity (NEK9 (human)): 99.2%
- residual activity (CSNK2A2 (human)): 101%
- residual activity (MAPK1 (human)): 112%
- residual activity (MAPK3 (human)): 118%
- residual activity (OXSR1 (human)): 102%
- residual activity (PRKCD (human)): 98.8%
- residual activity [1]: 101%
- residual activity (TSSK1B (human)): 96.5%
- residual activity (NLK (human)): 104%
- residual activity (MAPKAPK3 (human)): 104%
- residual activity (CSNK1G3 (human)): 96.5%
- residual activity (MST1R (human)): 111%
- residual activity (STK25 (human)): 89.8%
- residual activity (STK10 (human)): 92.6%
- residual activity (CSNK1D (human)): 100%
- residual activity (RPS6KB2 (human)): 102%
- residual activity (PRKCA (human)): 84.3%
- residual activity (SRMS (human)): 93.1%

Compound: O=c1c(-c2ccc(F)cc2)c(-c2ccncc2)[nH]n1-c1ccc(Cl)cc1
- residual activity (MAP3K10 (human)): 88.1%
- residual activity (ROCK2 (human)): 89.5%
- residual activity (CAMK1D (human)): 72.2%
- residual activity (SRPK2 (human)): 94.4%
- residual activity (HIPK4 (human)): 94.6%
- residual activity (PHKG1 (human)): 94.1%
- residual activity (PKN1 (human)): 92.4%
- residual activity (YES1 (human)): 85.1%
- residual activity (CDK5 CDK5R1 p35 (human); ATP 10 µM): 104%
- residual activity (CAMK4 (human)): 104%
- residual activity (PRKD1 (human)): 84.7%
- residual activity (PTK2 (human)): 95.1%
- residual activity (GSK3A (human)): 93.3%
- residual activity (TXK (human)): 94.4%
- residual activity (EPHA2 (human)): 101%
- residual activity (NEK11 (human)): 104%
- residual activity (DYRK3 (human)): 82.7%
- residual activity (CDK4 CCND1 (human); ATP 10 µM): 102%
- residual activity (CAMKK1 (human)): 98.5%
- residual activity (STK17A (human)): 105%
- residual activity (PDGFRB (human)): 101%
- residual activity (MAP2K2 (human)): 82.5%
- residual activity (FGFR4 (human)): 92.4%
- residual activity (NEK9 (human)): 107%
- residual activity (MAPK1 (human)): 77.3%
- residual activity (MAPK3 (human)): 103%
- residual activity (OXSR1 (human)): 83.3%
- residual activity (PRKCD (human)): 92.6%
- residual activity [1]: 90.9%
- residual activity (TSSK1B (human)): 76.2%
- residual activity (NLK (human)): 16%
- residual activity (MAPKAPK3 (human)): 101%
- residual activity (CSNK1G3 (human)): 102%
- residual activity (MST1R (human)): 95%
- residual activity (STK25 (human)): 111%
- residual activity (STK10 (human)): 81.9%
- residual activity (CSNK1D (human); ATP 10 µM): 26.7%
- residual activity (RPS6KB2 (human)): 95.5%
- residual activity (PRKCA (human)): 100%
- residual activity (SRMS (human)): 104%

Compound: COc1cc2c(Nc3ccc(Br)cc3F)ncnc2cc1OCC1CCN(C)CC1
- residual activity (MAP3K10 (human)): 102%
- residual activity (ROCK2 (human)): 90.7%
- residual activity (CAMK1D (human)): 90.6%
- residual activity (SRPK2 (human)): 106%
- residual activity (HIPK4 (human)): 100%
- residual activity (PHKG1 (human)): 55.5%
- residual activity (PKN1 (human)): 103%
- residual activity (YES1 (human)): 11.3%
- residual activity (CDK5 CDK5R1 p35 (human); ATP 10 µM): 107%
- residual activity (CAMK4 (human)): 101%
- residual activity (PRKD1 (human)): 99.3%
- residual activity (PTK2 (human)): 100%
- residual activity (ULK2 (human)): 108%
- residual activity (GSK3A (human)): 103%
- residual activity (TXK (human)): 57.5%
- residual activity (EPHA2 (human)): 21.5%
- residual activity (NEK11 (human)): 103%
- residual activity (DYRK3 (human)): 96%
- residual activity (CDK4 CCND1 (human); ATP 10 µM): 94.8%
- residual activity (CAMKK1 (human)): 90.4%
- residual activity (STK17A (human)): 92.4%
- residual activity (FGFR4 (human)): 90%
- residual activity (NEK9 (human)): 101%
- residual activity (CSNK2A2 (human)): 96.5%
- residual activity (MAPK1 (human)): 99.1%
- residual activity (MAPK3 (human)): 102%
- residual activity (OXSR1 (human)): 100%
- residual activity (PRKCD (human)): 103%
- residual activity [1]: 97.7%
- residual activity (TSSK1B (human)): 96.6%
- residual activity (NLK (human)): 96.2%
- residual activity (MAPKAPK3 (human)): 98.5%
- residual activity (CSNK1G3 (human)): 98.1%
- residual activity (MST1R (human)): 93.6%
- residual activity (STK25 (human)): 99%
- residual activity (STK10 (human)): 21.3%
- residual activity (CSNK1D (human); ATP 10 µM): 94.4%
- residual activity (RPS6KB2 (human)): 101%
- residual activity (PRKCA (human)): 97.1%
- residual activity (SRMS (human)): 98.8%
